Tests used:
[1] = test system: Botryotinia fuckeliana (Botrytis cinerea); test: Botryotinia fuckeliana liquid culture growth inhibition; type: cell-based; conditions: photometric, 3-4 days after application, read-out: control on Botryotinia fuckeliana
Protocol: Conidia of the fungus from cryogenic storage are directly mixed into nutrient broth (Vogels broth). After placing a (DMSO) solution of test compound into a microtiter plate (96-well format), the nutrient broth containing the fungal spores is added.

[2] = test system: Mycosphaerella arachidis (Cercospora arachidicola); test: Mycosphaerella arachidis liquid culture growth inhibition; type: cell-based; conditions: photometric, 4-5 days after application, read-out: control on Mycosphaerella arachidis
Protocol: (§1) Conidia of the fungus from cryogenic storage are directly mixed into nutrient broth (PDB potato dextrose broth). After placing a (DMSO) solution of test compound into a microtiter plate (96-well format), the nutrient broth containing the fungal spores is added.

Pythium ultimum [3] = test: Pythium ultimum liquid culture growth inhibition; type: cell-based; conditions: Globisporangium ultimum, photometric, 2-3 days after application, read-out: control on Pythium ultimum
Protocol: as §1, with “Mycelia fragments and oospores of a newly grown liquid culture” for “Conidia”, “fungus” for “fungus from cryogenic storage”, “mycelia/spore mixture” for “spores”

Alternaria solani = Alternaria solani on tomato plants; type: in vivo; conditions: 4-week old tomato plants cv. Roter Gnom, spray, inoculated two days after application
Protocol: 4-week old tomato plants cv. Roter Gnom are sprayed in a spray chamber with the formulated test compound diluted in water. The test plants are inoculated by spraying them with a spore suspension two days after application. The inoculated test plants are incubated at 22/18° C. (day/night) and 95% rh in a greenhouse and the percentage leaf area covered by disease is assessed when an appropriate level of disease appears on untreated check plants (5-7 days after application).

Fusarium culmorum = Fusarium culmorum liquid culture growth inhibition; type: cell-based; conditions: photometric, 3-4 days after application, read-out: control on Fusarium culmorum
Protocol: as §1, with “added. The test plates are incubated at 24° C. and the inhibition of growth is determined photometrically 3-4 days after application.” for “added.”

[4] = test system: Glomerella lagenarium (Colletotrichum lagenarium); test: Glomerella lagenarium liquid culture growth inhibition; type: cell-based; conditions: Colletotrichum orbiculare, photometric, 3-4 days after application, read-out: control on Glomerella lagenarium
Protocol: as §1

[5] = test system: Monographella nivalis (Microdochium nivale); test: Monographella nivalis liquid culture growth inhibition; type: cell-based; conditions: photometric, 4-5 days after application, read-out: control on Monographella nivalis
Protocol: as §1, with “added. The test plates are incubated at 24° C. and the inhibition of growth is determined photometrically 4-5 days after application.” for “added.”

[6] = test system: Thanatephorus cucumeris (Rhizoctonia solani); test: Thanatephorus cucumeris liquid culture growth inhibition; type: cell-based; conditions: photometric, 3-4 days after application, read-out: control on Thanatephorus cucumeris
Protocol: Mycelia fragments of a newly grown liquid culture of the fungus are directly mixed into nutrient broth (PDB potato dextrose broth). After placing a (DMSO) solution of the test compounds into a microtiter plate (96-well format), the nutrient broth containing the fungal material is added. The test plates are incubated at 24° C. and the inhibition of growth is determined photometrically 3-4 days after application.

Pythium ultimum [7] = test: Example B-5: seed treatment against Pythium ultimum on cotton; type: in vivo; conditions: Globisporangium ultimum, rate of 200 g/100 kg seeds, infested soil, number of germinated, healthy plants
Protocol: The trial is kept for 1 week in a growth room at 20° C. and darkness. After this period the trial is transferred to a greenhouse where a temperature of 21° C. and a 14 h light period is provided until the trial is finished. The following assessments are made: number of germinated, healthy plants. Each number is determined for 150 seeds per treatment (3 replicates a 50 seeds).

| SMILES | inhibition of growth at 200 ppm [1] | inhibition of growth at 200 ppm [2] | inhibition of growth at 200 ppm (Pythium ultimum [3]) | pest or weed control at 60 ppm (Alternaria solani) | inhibition of growth at 200 ppm (Fusarium culmorum) | inhibition of growth at 200 ppm [4] | inhibition of growth at 200 ppm [5] | inhibition of growth at 200 ppm [6] | pest or weed control at 200 g/100 kg seeds (Pythium ultimum [7]) |
| --- | --- | --- | --- | --- | --- | --- | --- | --- | --- |
| NCC(OB1OCc2cc(Cl)ccc21)c1ccccc1 (centres unmarked) [Compound 3, 2-(5-Chloro-3H-benzo[c][1,2]oxaborol-1-yloxy)-2-phenyl-ethylamine] | ≥ 80% | ≥ 80% | ≥ 80% | ≥ 60% | ≥ 80% | ≥ 80% | ≥ 80% | – | – |
| NCCCCOB1OCc2cc(Cl)ccc21 [Compound 10, 4-(5-Chloro-3H-benzo[c][1,2]oxaborol-1-yloxy)-butylamine] | ≥ 80% | ≥ 80% | ≥ 80% | – | ≥ 80% | ≥ 80% | ≥ 80% | ≥ 80% | ≥ 50% |
| OB1OCc2ccccc21 [Compound 11, 3H-Benzo[c][1,2]oxaborol-1-ol] | ≥ 80% | ≥ 80% | ≥ 80% | – | ≥ 80% | ≥ 80% | – | – | ≥ 50% |
| OB1OCc2cc3ccccc3cc21 [Compound 15, 3H-2-Oxa-1-bora-cyclopenta[b]naphthalen-1-ol] | ≥ 80% | ≥ 80% | ≥ 80% | ≥ 60% | ≥ 80% | ≥ 80% | ≥ 80% | – | – |
| NCCOB1OCc2c1ccc1ccccc21 [Compound 18, 2-(1H-2-Oxa-3-bora-cyclopenta[a]naphthalen-3-yloxy)-ethylamine] | – | ≥ 80% | ≥ 80% | ≥ 60% | ≥ 80% | ≥ 80% | ≥ 80% | – | – |
| Clc1ccc2c(c1)COB2Oc1cccc2cccnc12 [Compound 22, 8-(5-Chloro-3H-benzo[c][1,2]oxaborol-1-yloxy)-quinoline] | ≥ 80% | ≥ 80% | ≥ 80% | – | ≥ 80% | ≥ 80% | ≥ 80% | ≥ 80% | – |
| Clc1ccc2c(c1)COB2OC[C@@H]1CCCN1 [Compound 24, (S)-2-(5-Chloro-3H-benzo[c][1,2]oxaborol-1-yloxymethyl)-pyrrolidine] | ≥ 80% | ≥ 80% | ≥ 80% | – | ≥ 80% | ≥ 80% | ≥ 80% | ≥ 80% | – |
| CC(CN)OB1OCc2cc(Cl)ccc21 (centres unmarked) [Compound 27, 2-(5-Chloro-3H-benzo[c][1,2]oxaborol-1-yloxy)-propylamine] | ≥ 80% | ≥ 80% | ≥ 80% | ≥ 60% | ≥ 80% | ≥ 80% | ≥ 80% | ≥ 80% | – |
| CC(N)COB1OCc2cc(Cl)ccc21 (centres unmarked) [Compound 28, 2-(5-Chloro-3H-benzo[c][1,2]oxaborol-1-yloxy)-1-methyl-ethylamine] | ≥ 80% | ≥ 80% | ≥ 80% | ≥ 60% | ≥ 80% | ≥ 80% | ≥ 80% | ≥ 80% | – |
| NCCOB1OCc2cc(Cl)ccc21 [Compound 36, 2-(5-Chloro-3H-benzo[c][1,2]oxaborol-1-yloxy)-ethylamine] | ≥ 80% | ≥ 80% | ≥ 80% | – | ≥ 80% | ≥ 80% | ≥ 80% | ≥ 80% | – |
